Read-outs that look alike come from different tables or passages of the source. Marks after values point to notes of the source that are not given here.

This data set in a line: Chemical stability of liquid composition on storage. The data set is classed as physicochemical. On the procedure:
The chemical stability of a disclosed liquid composition stored at 6° C. or 22° C. was evaluated at 2 months and three months. The microbial stability and shelf life was also evaluated. A liquid composition having a pH of about 3.7 was subjected to high pressure processing at 6000 bar for two cycles of 5 minutes.

Where [1] appears, read: stored at 6° C. or 22° C., adjusted for slightly lower oil volume in 3 months preparation (55 ml vs 60 ml).

For `NCC(=O)O` [Glycine], for the setting “stored at 6° C. or 22° C.”, the “amount in liquid composition at 2 Months (chemical stability)” value (“amount in liquid composition at 2 Months” below) is listed as 3319 mg/60 mL and the “amount in liquid composition at 3 Months (chemical stability)” value (from here on “amount in liquid composition at 3 Months”) was found to be 3303 mg/60 mL.

Regarding `N[C@@H](Cc1c[nH]c2ccccc12)C(=O)O` [L-Tryptophan], for the setting “stored at 6° C. or 22° C.”, the “amount in liquid composition at 2 Months” value was 420 mg/60 mL and the “amount in liquid composition at 3 Months” value was found to be 426 mg/60 mL.

Consider `[Mg+2]` [Magnesium], for which the “amount in liquid composition at 2 Months” value is recorded as 15 mg/60 mL and the “amount in liquid composition at 3 Months” value stood at 27.8 mg/60 mL.

Take `[Na]` [Sodium]: where the note is “stored at 6° C. or 22° C.”, the “amount in liquid composition at 2 Months” value came out at 1.23 mg/60 mL and the “amount in liquid composition at 3 Months” value stood at 0.6 mg/60 mL.

Turning to `O=C1O[C@H]([C@@H](O)CO)C(O)=C1O` [Vitamin C], for the setting “stored at 6° C. or 22° C.”, the “amount in liquid composition at 2 Months” value is given as 326 mg/60 mL and the “amount in liquid composition at 3 Months” value was 245 mg/60 mL.

Consider `[Zn]` [Zinc], for which, for the setting “stored at 6° C. or 22° C.”, the “amount in liquid composition at 2 Months” value was found to be 6 mg/60 mL and the “amount in liquid composition at 3 Months” value is recorded as 5.7 mg/60 mL.

With `CC/C=C\C/C=C\C/C=C\CCCCCCCC(=O)O` [alpha linoleic acid], the “amount in liquid composition at 2 Months” value is listed as 1026 mg/60 mL and the “amount in liquid composition at 3 Months” value is 1025* mg/60 mL.

On to `CC/C=C\C/C=C\C/C=C\C/C=C\C/C=C\CCCC(=O)O` [eicosapentaenoic acid], for which, for the setting “stored at 6° C. or 22° C.”, the “amount in liquid composition at 2 Months” value is given as 319 mg/60 mL. In addition, under setting [1], the “amount in liquid composition at 3 Months” value is on record as 297* mg/60 mL.

As for Medium chain triglycerides, the “amount in liquid composition at 2 Months” value was determined as 2209 mg/60 mL and the “amount in liquid composition at 3 Months” value is 2407* mg/60 mL.

As for Vitamin D, the “amount in liquid composition at 2 Months” value (stored at 6° C. or 22° C.) came out at 25 mcg/60 mL. In addition, the “amount in liquid composition at 3 Months” value under setting [1] was 26* mcg/60 mL.

For the compound Vitamin E, the “amount in liquid composition at 3 Months” value (stored at 6° C. or 22° C.) is 2.2 mg/60 mL.

As for docosapenataenoic acid, the “amount in liquid composition at 2 Months” value (stored at 6° C. or 22° C.) is given as 632 mg/60 mL. Further, the “amount in liquid composition at 3 Months” value under setting [1] is listed as 587* mg/60 mL.

Source of the values: patent US20240173295A1, “A STABLE, EMULSION-FORMING LIQUID COMPOSITION COMPRISING AMINO ACIDS” (Brain Luxury Inc., priority 2021, published 2024).
